Experimental data published in US9085555B2, “Complement pathway modulators and uses thereof” (priority 2011, dated 2015).

Biological target: Factor D (Homo sapiens (Human), UniProt P00746)
Experiment: biochemical
Type: biochemical
Details: read-out: IC50

Sequence of Factor D (P00746 26-253): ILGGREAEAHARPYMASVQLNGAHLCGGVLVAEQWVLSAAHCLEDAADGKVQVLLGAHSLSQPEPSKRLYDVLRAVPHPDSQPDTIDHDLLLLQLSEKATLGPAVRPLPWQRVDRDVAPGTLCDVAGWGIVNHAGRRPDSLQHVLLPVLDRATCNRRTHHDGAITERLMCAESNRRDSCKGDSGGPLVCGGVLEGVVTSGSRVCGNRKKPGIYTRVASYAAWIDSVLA

SMILES: NC(=O)n1cc(NC(=O)N2C[C@@H](N)C[C@H]2C(=O)NC(CO)c2cc(Cl)cc(Cl)c2)c2ccccc21 (stereo partly drawn) [Example 70, (2S,4S)-4-Amino-pyrrolidine-1,2-dicarboxylic acid 1-[(1-carbamoyl-1H-indol-3-yl)-amide] 2-{[1-(3,5-dichloro-phenyl)-2-hydroxy-ethyl]-amide}]
- IC50: 2.58 µM

SMILES: NC(=O)n1cc(NC(=O)N2C[C@@H](N)C[C@H]2C(=O)NC(CCO)c2cccc(Cl)c2)c2ccccc21 (stereo partly drawn) [Example 71, (2S,4S)-4-Amino-pyrrolidine-1,2-dicarboxylic acid 1-[(1-carbamoyl-1H-indol-3-yl)-amide] 2-{[1-(3-chloro-phenyl)-3-hydroxy-propyl]-amide}]
- IC50: 2.9 µM

SMILES: NC(=O)n1cc(NC(=O)N2C[C@@H](N)C[C@H]2C(=O)NC2(c3ccccc3)CC2)c2ccccc21 [Example 72, (2S,4S)-4-Amino-pyrrolidine-1,2-dicarboxylic acid 1-[(1-carbamoyl-1H-indol-3-yl)-amide] 2-[(1-phenyl-cyclopropyl)-amide]]
- IC50: 7 µM

SMILES: NC(=O)n1cc(NC(=O)N2C[C@@H](N)C[C@H]2C(=O)NC(c2ccccc2)c2ccccc2)c2ccccc21 [Example 73, (2S,4S)-4-Amino-pyrrolidine-1,2-dicarboxylic acid 2-benzhydryl-amide 1-[(1-carbamoyl-1H-indol-3-yl)-amide]]
- IC50: 0.325 µM

SMILES: NC(=O)n1cc(NC(=O)N2C[C@@H](N)C[C@H]2C(=O)NCC2CCCCC2)c2ccccc21 [Example 74, (2S,4S)-4-Amino-pyrrolidine-1,2-dicarboxylic acid 1-[(1-carbamoyl-1H-indol-3-yl)-amide] 2-cyclohexylmethyl-amide]
- IC50: 3.65 µM

SMILES: NC(=O)n1cc(NC(=O)N2C[C@@H](N)C[C@H]2C(=O)NC[C@@H]2CCCC[C@@H]2O)c2ccccc21 [Example 76, (2S,4S)-4-Amino-pyrrolidine-1,2-dicarboxylic acid 1-[(1-carbamoyl-1H-indol-3-yl)-amide] 2-[((1S,2S)-2-hydroxy-cyclohexylmethyl)-amide]]
- IC50: 15.7 µM

SMILES: NC(=O)n1cc(NC(=O)N2C[C@@H](N)C[C@H]2C(=O)NC2CCCCC2)c2ccccc21 [Example 77, (2S,4S)-4-Amino-pyrrolidine-1,2-dicarboxylic acid 1-[(1-carbamoyl-1H-indol-3-yl)-amide] 2-cyclohexylamide]
- IC50: 14.6 µM

SMILES: NC(=O)n1cc(NC(=O)N2C[C@@H](N)C[C@H]2C(=O)NC2CCCN(c3ccccn3)C2)c2ccccc21 (stereo partly drawn) [Example 78, (2S,4S)-4-Amino-pyrrolidine-1,2-dicarboxylic acid 1-[(1-carbamoyl-1H-indol-3-yl)-amide] 2-[(3,4,5,6-tetrahydro-2H-[1,2′]bipyridinyl-3-yl)-amide]]
- IC50: 10.4 µM

SMILES: NC(=O)n1cc(NC(=O)N2C[C@@H](N)C[C@H]2C(=O)NC2CCc3ccc(Cl)cc32)c2ccccc21 (stereo partly drawn) [Example 79, (2S,4S)-4-Amino-pyrrolidine-1,2-dicarboxylic acid 1-[(1-carbamoyl-1H-indol-3-yl)-amide] 2-[(6-chloro-indan-1-yl)-amide]]
- IC50: 6 µM

SMILES: NC(=O)n1cc(NC(=O)N2C[C@@H](N)C[C@H]2C(=O)NC2CCOc3ccc(Cl)cc32)c2ccccc21 (stereo partly drawn) [Example 80, (2S,4S)-4-Amino-pyrrolidine-1,2-dicarboxylic acid 1-[(1-carbamoyl-1H-indol-3-yl)-amide] 2-[(6-chloro-chroman-4-yl)-amide]]
- IC50: 15 µM

SMILES: NC(=O)n1cc(NC(=O)N2C[C@@H](N)C[C@H]2C(=O)NCCc2ccccc2)c2ccccc21 [Example 81, (2S,4S)-4-Amino-pyrrolidine-1,2-dicarboxylic acid 1-[(1-carbamoyl-1H-indol-3-yl)-amide] 2-(phenethyl-amide)]
- IC50: 4.75 µM

SMILES: NC(=O)n1cc(NC(=O)N2C[C@@H](N)C[C@H]2C(=O)NCC(O)c2ccccc2)c2ccccc21 (stereo partly drawn) [Example 82, (2S,4S)-4-Amino-pyrrolidine-1,2-dicarboxylic acid 1-[(1-carbamoyl-1H-indol-3-yl)-amide] 2-[(2-hydroxy-2-phenyl-ethyl)-amide]]
- IC50: 24.8 µM

SMILES: NC(=O)n1cc(NC(=O)N2C[C@@H](N)C[C@H]2C(=O)N[C@@H]2C[C@H]2c2ccccc2)c2ccccc21 [Example 83]
- IC50: 2.25 µM

SMILES: C[C@@H](CNC(=O)[C@@H]1C[C@H](N)CN1C(=O)Nc1cn(C(N)=O)c2ccccc12)c1ccccc1 [Example 84, (2S,4S)-4-Amino-pyrrolidine-1,2-dicarboxylic acid 1-[(1-carbamoyl-1H-indol-3-yl)-amide] 2-[((R)-2-phenyl-propyl)-amide]]
- IC50: 6 µM

SMILES: C[C@H](CNC(=O)[C@@H]1C[C@H](N)CN1C(=O)Nc1cn(C(N)=O)c2ccccc12)c1ccccc1 [Example 85, (2S,4S)-4-Amino-pyrrolidine-1,2-dicarboxylic acid 1-[(1-carbamoyl-1H-indol-3-yl)-amide] 2-[((S)-2-phenyl-propyl)-amide]]
- IC50: 11.3 µM

SMILES: NC(=O)n1cc(NC(=O)N2C[C@@H](N)C[C@H]2C(=O)NCCc2cccc(Cl)c2)c2ccccc21 [Example 86, (2S,4S)-4-Amino-pyrrolidine-1,2-dicarboxylic acid 1-[(1-carbamoyl-1H-indol-3-yl)-amide] 2-{[2-(3-chloro-phenyl)-ethyl]-amide}]
- IC50: 14.3 µM

SMILES: NC(=O)n1cc(NC(=O)N2C[C@@H](N)C[C@H]2C(=O)NCCc2ccccc2Cl)c2ccccc21 [Example 87, (2S,4S)-4-Amino-pyrrolidine-1,2-dicarboxylic acid 1-[(1-carbamoyl-1Hindol-3-yl)-amide] 2-{[2-(2-chloro-phenyl)-ethyl]-amide}]
- IC50: 4.65 µM

SMILES: NC(=O)n1cc(NC(=O)N2C[C@@H](N)C[C@H]2C(=O)NCCc2ccccc2F)c2ccccc21 [Example 88, (2S,4S)-4-Amino-pyrrolidine-1,2-dicarboxylic acid 1-[(1-carbamoyl-1Hindol-3-yl)-amide] 2-{[2-(2-fluoro-phenyl)-ethyl]-amide}]
- IC50: 6.8 µM

SMILES: NC(=O)n1cc(NC(=O)N2C[C@@H](N)C[C@H]2C(=O)NCCc2cccc(F)c2)c2ccccc21 [Example 89, (2S,4S)-4-Amino-pyrrolidine-1,2-dicarboxylic acid 1-[(1-carbamoyl-1Hindol-3-yl)-amide] 2-{[2-(3-fluoro-phenyl)-ethyl]-amide}]
- IC50: 7.7 µM

SMILES: NC(=O)n1cc(NC(=O)N2C[C@@H](N)C[C@H]2C(=O)NCCc2cc(F)cc(Cl)c2)c2ccccc21 [Example 90, (2S,4S)-4-Amino-pyrrolidine-1,2-dicarboxylic acid 1-[(1-carbamoyl-1H-indol-3-yl)-amide] 2-{[2-(3-chloro-5-fluoro-phenyl)-ethyl]-amide}]
- IC50: 1.15 µM

SMILES: CC[C@H](C)[C@H](NC(=O)[C@@H]1C[C@H](N)CN1C(=O)Nc1cn(C(N)=O)c2ccccc12)C(=O)OC [Example 92, (2S,3S)-2-{[(2S,4S)-4-Amino-1-(1-carbamoyl-1H-indol-3-ylcarbamoyl)-pyrrolidine-2-carbonyl]-amino}-3-methyl-pentanoic acid methyl ester]
- IC50: 8.65 µM

SMILES: CCC[C@H](NC(=O)[C@@H]1C[C@H](N)CN1C(=O)Nc1cn(C(N)=O)c2ccccc12)C(=O)OC [Example 93, (S)-2-{[(2S,4S)-4-Amino-1-(1-carbamoyl-1H-indol-3-ylcarbamoyl)-pyrrolidine-2-carbonyl]-amino}-pentanoic acid methyl ester]
- IC50: 4 µM

SMILES: COC(=O)[C@H](CC(C)C)NC(=O)[C@@H]1C[C@H](N)CN1C(=O)Nc1cn(C(N)=O)c2ccccc12 [Example 95, (S)-2-{[(2S,4S)-4-Amino-1-(1-carbamoyl-1H-indol-3-ylcarbamoyl)-pyrrolidine-2-carbonyl]-amino}-4-methyl-pentanoic acid methyl ester]
- IC50: 1.35 µM

SMILES: COC(=O)[C@H](COC(C)(C)C)NC(=O)[C@@H]1C[C@H](N)CN1C(=O)Nc1cn(C(N)=O)c2ccccc12 [Example 96, (S)-2-{[(2S,4S)-4-Amino-1-(1-carbamoyl-1H-indol-3-ylcarbamoyl)-pyrrolidine-2-carbonyl]-amino}-3-tert-butoxy-propionic acid methyl ester]
- IC50: 8.05 µM

SMILES: COC(=O)[C@H](Cc1ccccc1)NC(=O)[C@@H]1C[C@H](N)CN1C(=O)Nc1cn(C(N)=O)c2ccccc12 [Example 97, (S)-2-{[(2S,4S)-4-Amino-1-(1-carbamoyl-1H-indol-3-ylcarbamoyl)-pyrrolidine-2-carbonyl]-amino}-3-phenyl-propionic acid methyl ester]
- IC50: 0.9 µM

SMILES: COC(=O)[C@@H](NC(=O)[C@@H]1C[C@H](N)CN1C(=O)Nc1cn(C(N)=O)c2ccccc12)c1ccccc1 [Example 98, (S)-{[(2S,4S)-4-Amino-1-(1-carbamoyl-1H-indol-3-ylcarbamoyl)-pyrrolidine-2-carbonyl]-amino}-phenyl-acetic acid methyl ester]
- IC50: 1.85 µM

SMILES: CC[C@H](C)[C@H](NC(=O)[C@@H]1C[C@H](N)CN1C(=O)Nc1cn(C(N)=O)c2ccccc12)C(N)=O [Example 99, (2S,4S)-4-Amino-pyrrolidine-1,2-dicarboxylic acid 1-[(1-carbamoyl-1H-indol-3-yl)-amide] 2-[((1S,2S)-1-carbamoyl-2-methyl-butyl)-amide]]
- IC50: 23.2 µM

SMILES: CCc1cccc(CNC(=O)[C@@H]2C[C@H](N)CN2C(=O)Nc2cn(C(N)=O)c3ccccc23)c1 [Example 100, (2S,4S)-4-Amino-pyrrolidine-1,2-dicarboxylic acid 1-[(1-carbamoyl-1H-indol-3-yl)-amide] 2-(3-ethyl-benzylamide)]
- IC50: 17.6 µM

SMILES: CC[C@H](C)[C@@H](CO)NC(=O)[C@@H]1C[C@H](N)CN1C(=O)Nc1cn(C(N)=O)c2ccccc12 [Example 101, (2S,4S)-4-Amino-pyrrolidine-1,2-dicarboxylic acid 1-[(1-carbamoyl-1H-indol-3-yl)-amide] 2-[((1S,2S)-1-hydroxymethyl-2-methyl-butyl)-amide]]
- IC50: 15.2 µM

SMILES: CC(C)c1cccc(NC(=O)[C@@H]2C[C@H](N)CN2C(=O)Nc2cn(C(N)=O)c3ccccc23)c1 [Example 102, (2S,4S)-4-Amino-pyrrolidine-1,2-dicarboxylic acid 1-[(1-carbamoyl-1H-indol-3-yl)-amide]2-[(3-isopropyl-phenyl)-amide]]
- IC50: 0.567 µM
